Data on 80 compounds can be found in publication PMC12040169 (PLOS Biology, 2025).

The data set can be described thus: in vitro. The note with it: human, hela cells, % viability.

`Cc1csc(-c2cn3ccnc3c(N3CCN(c4ccccn4)CC3)n2)c1` [CBK066530]: the viability at 28.5 h, 10 µM was determined as 95.6%.

As to `CSc1ccc(-c2cn3ccnc3c(Nc3ccccc3)n2)cc1` [CBK066537], the viability at 28.5 h, 10 µM came to 91.3%.

Regarding `OCCN1CCN(c2nc(-c3cc(Cl)cc(Cl)c3)cn3ccnc23)CC1` [CBK066558], the viability at 28.5 h, 10 µM came out at 94.1%.

Take `Nc1ccc(-c2cn3ccnc3c(NCc3cccs3)n2)cc1` [CBK066564]: the viability at 28.5 h, 10 µM turned out to be 95.5%.

In the case of `CCOc1cccc(-c2cn3ccnc3c(N(C)CCN(C)C)n2)c1` [CBK066569], the viability at 28.5 h, 10 µM was determined as 89.7%.

As to `CN1CCCN(c2nc(-c3cccs3)cn3ccnc23)CC1` [CBK066652], the viability at 28.5 h, 10 µM is 89.5%.

On to `CCSc1ccc(-c2cn3ccnc3c(N3CCN(CCN(C)C)CC3)n2)cc1` [CBK066662], for which the viability at 28.5 h, 10 µM was determined as 92.8%.

With `Nc1ccc(-c2cn3ccnc3c(NCC3CC3)n2)cc1` [CBK066677], the viability at 28.5 h, 10 µM was determined as 101%.

In the case of `c1cncc(CNc2nc(-c3cccs3)cn3ccnc23)c1` [CBK066687], the viability at 28.5 h, 10 µM came out at 104%.

Turning to `Fc1ccc(-c2cn3ccnc3c(NC3CC3)n2)cc1F` [CBK066692], the viability at 28.5 h, 10 µM was 101%.

With `Cn1ccc2cc(-c3cn4ccnc4c(N4CCOCC4)n3)ccc21` [CBK066696], the viability at 28.5 h, 10 µM was found to be 89.1%.

Take `c1csc(-c2cn3ccnc3c(NC3CC3)n2)c1` [CBK066712]: the viability at 28.5 h, 10 µM is 108%.

Regarding `CCOc1cccc(-c2cn3ccnc3c(NC3CC3)n2)c1` [CBK066736], the viability at 28.5 h, 10 µM came to 91.6%.

Regarding `Cc1cc(-c2cn3ccnc3c(NC3CC3)n2)cc(C)c1O` [CBK066747], the viability at 28.5 h, 10 µM amounted to 86.5%.

On to `c1csc(-c2cn3ccnc3c(NCC3CC3)n2)c1` [CBK066754], for which the viability at 28.5 h, 10 µM stood at 93.7%.

Regarding `O=C(NCCCNc1ccc([N+](=O)[O-])cc1)c1cccs1` [CBK066825], the viability at 28.5 h, 10 µM amounted to 94.1%.

Consider `COC(=O)c1sccc1NC(=O)COc1ccc([N+](=O)[O-])cc1Cl` [CBK066828], for which the viability at 28.5 h, 10 µM turned out to be 109%.

As to `CCOC(=O)c1c(N)sc(C(=O)Nc2cccc([N+](=O)[O-])c2)c1C` [CBK066829], the viability at 28.5 h, 10 µM was determined as 91.2%.

`O=C(Nc1cc(Cl)cc(Cl)c1)c1ccc([N+](=O)[O-])s1` [CBK066840]: the viability at 28.5 h, 10 µM is 95.2%.

With `COC(=O)c1cc(Br)c(NC(=O)c2cccs2)cc1OC` [CBK066842], the viability at 28.5 h, 10 µM stood at 86.6%.

As to `O=C(O)c1sccc1Oc1ccc(F)cc1[N+](=O)[O-]` [CBK066847], the viability at 28.5 h, 10 µM turned out to be 112%.

With `O=C(Nc1cccc(F)c1C(=O)Nc1ccc(F)cc1F)c1cccs1` [CBK066849], the viability at 28.5 h, 10 µM was 87.3%.

For `N#Cc1ccc(SCCOC(=O)c2cccs2)c([N+](=O)[O-])c1` [CBK066853], the viability at 28.5 h, 10 µM is 99%.

Turning to `N#Cc1cccc(NC(=O)c2cccs2)c1` [CBK066855], the viability at 28.5 h, 10 µM amounted to 96.2%.

For `Cc1cc(N2CCOCC2)c2c(N)c(Br)cc(C)c2n1` [CBK066880], the viability at 28.5 h, 10 µM stood at 73%.

On to `O=C(c1c(-c2ccccc2)nnc2ccccc12)N1CCN(CCO)CC1` [CBK066882], for which the viability at 28.5 h, 10 µM came out at 87.3%.

Take `CC(C)CN(CC(N)=O)CC(=O)NC1(c2ccccc2)CCC1` [CBK066883T]: the viability at 28.5 h, 10 µM was found to be 88.9%.

For the compound `CC(=O)N1CCN(c2c(-c3ccccc3)nnc3ccccc23)CC1` [CBK066889], the viability at 28.5 h, 10 µM was determined as 91.2%.

With `Cc1cc(N2CCNCC2)c2ccccc2n1` [CBK066895], the viability at 28.5 h, 10 µM is 86.1%.

With `c1ccc2c(N3CCCCC3)cnnc2c1` [CBK066897], the viability at 28.5 h, 10 µM came out at 99.2%.

As to `CN(C)CCNc1cc(-c2ccncc2)nc2ccccc12` [CBK066898B], the viability at 28.5 h, 10 µM was found to be 90.4%.

In the case of `CC1CCN(c2nc(-c3ccccc3O)nc3ccccc23)CC1` [CBK066899], the viability at 28.5 h, 10 µM is 109%.

For the compound `Cc1ccc(-c2cc(C(=O)N3CCOCC3)c3cc(Br)ccc3n2)cc1` [CBK066901], the viability at 28.5 h, 10 µM amounted to 86.4%.

Regarding `COc1ccc([C@]23CC[C@H](NC(=O)Nc4ccc(F)cc4F)C[C@H]2N(C)CC3)cc1OC` [CBK066917T], the viability at 28.5 h, 10 µM worked out at 90.6%.

On to `COc1ccc([C@]23CC[C@H](NC(=O)Nc4ccc(C#N)c(Cl)c4)C[C@H]2N(C)CC3)cc1OC` [CBK066928T], for which the viability at 28.5 h, 10 µM (bulk resorufin, single well) amounted to 94.9%.

Consider `O=S(=O)(Nc1cc(NC2CCNC2)c2occc2c1)c1ccccc1` (centres unmarked) [CBK066943C], for which the viability at 28.5 h, 10 µM was found to be 104%.

Consider `CCN(CC)C(=O)[C@@H]1CCCN(C2CCN(C(=O)c3c4ccccc4cc4ccccc34)CC2)C1` [CBK066966C], for which the viability at 28.5 h, 10 µM worked out at 90.4%.

For `CCN(CC)C(=O)C1CCCN(C2CCN(C(=O)c3c4ccccc4cc4ccccc34)CC2)C1` (centres unmarked) [CBK066966], the viability at 28.5 h, 10 µM came out at 102%.

As to `CC(=O)N1CCc2c([nH]c3ccccc23)C1CNCc1ccc(F)cc1` (centres unmarked) [CBK066968], the viability at 28.5 h, 10 µM is 96.6%.

For the compound `Fc1ccc(OCCNCCC2NCCc3c2[nH]c2ccccc32)cc1` (centres unmarked) [CBK066970], the viability at 28.5 h, 10 µM worked out at 97.6%.

As to `Cc1ccc(CCCC(=O)N2CCc3c([nH]c4c(C)cccc34)C23CCN(Cc2ccc(F)cc2)C3)cc1` (centres unmarked) [CBK066979], the viability at 28.5 h, 10 µM was determined as 99.2%.

With `CCCN(CC1CC1)C(=O)CC1SC(NCC2CCCCC2)=NC1=O` (centres unmarked) [CBK067014], the viability at 28.5 h, 10 µM was 104%.

Consider `O=C1N=C(NCC2CCCCC2)OC1Cc1ccccc1` (centres unmarked) [CBK067023], for which the viability at 28.5 h, 10 µM was 94.1%.

Consider `COc1ccc(Br)cc1C(=O)NCC1(c2ccccc2)CCOCC1` [CBK067051], for which the viability at 28.5 h, 10 µM was determined as 82.7%.

Take `S=C(NCC1CCCCC1)Nc1ncc(Cl)cc1Cl` [CBK067053]: the viability at 28.5 h, 10 µM came out at 91%.

For `CC(C)(C#N)C(C)(C)c1nnn[nH]1` [CBK067072], the viability at 28.5 h, 10 µM stood at 85.1%.

Consider `CC1CCC(C(C)C)C(OC(=O)C(C)O)C1` (centres unmarked) [CBK067073], for which the viability at 28.5 h, 10 µM was determined as 81.6%.

Regarding `COc1ccc([C@@]23CC[C@@H](NC(=O)Nc4nc(Cl)cc(Cl)n4)C[C@@H]2N(C)CC3)cc1OC` [CBK067083T], the viability at 28.5 h, 10 µM was 96.3%.

For the compound `Clc1cnc2nc(NCC3CCCCC3)sc2c1` [CBK067087], the viability at 28.5 h, 10 µM was 87.5%.

For `O=C1c2ccccc2C2(c3ccccc3)NCCN12` (centres unmarked) [CBK067098], the viability at 28.5 h, 10 µM was 101%.

On to `CC12CCC(=O)N1CCCN2` (centres unmarked) [CBK067102T], for which the viability at 28.5 h, 10 µM came to 94.5%.

With `O=S(=O)(Nc1cccc(-c2cnco2)c1)c1cccc2cccnc12` [CBK067104], the viability at 28.5 h, 10 µM is 81%.

As for `O=S(=O)(Nc1cccc(-c2cnco2)c1)c1ccc(Cl)c(Cl)c1` [CBK067117], the viability at 28.5 h, 10 µM was 80.9%.

With `CN1CCOc2cc(S(=O)(=O)Nc3cccc(-c4cnco4)c3)ccc21` [CBK067119], the viability at 28.5 h, 10 µM amounted to 82.9%.

On to `O=C(O)c1cc(S(=O)(=O)Nc2cccc(-c3cnco3)c2)c(F)cc1Cl` [CBK067126], for which the viability at 28.5 h, 10 µM turned out to be 90.5%.

Consider `Cc1c(S(=O)(=O)Nc2ccc3cn[nH]c3c2)cnn1-c1ccccc1` [CBK067149], for which the viability at 28.5 h, 10 µM came out at 92.4%.

As for `O=S(=O)(Nc1ccc2cn[nH]c2c1)c1ccc(-c2ccon2)s1` [CBK067157], the viability at 28.5 h, 10 µM stood at 98.3%.

Turning to `O=[N+]([O-])c1cc(S(=O)(=O)Nc2ccc3cn[nH]c3c2)ccc1Cl` [CBK067160], the viability at 28.5 h, 10 µM turned out to be 91.1%.

Take `Cn1nc(-c2ccc(S(=O)(=O)n3cc(C#N)c(N)n3)s2)cc1C(F)(F)F` [CBK067237]: the viability at 28.5 h, 10 µM is 91.2%.

In the case of `Cc1cc(NS(=O)(=O)c2cccc(C(F)(F)F)c2)n(C)n1` [CBK067244], the viability at 28.5 h, 10 µM turned out to be 94.1%.

`Cc1cc(NS(=O)(=O)c2c(C)nn(C)c2Cl)n(C)n1` [CBK067245]: the viability at 28.5 h, 10 µM amounted to 99.9%.

Take `Cc1cc(NS(=O)(=O)c2cnn(-c3ccccc3)c2C)n(C)n1` [CBK067252]: the viability at 28.5 h, 10 µM amounted to 107%.

Consider `O=S(=O)(Nc1cccc(Cl)c1Cl)c1cccc2nsnc12` [CBK067296], for which the viability at 28.5 h, 10 µM came to 86.3%.

As for `Cc1nn(C)c(Cl)c1S(=O)(=O)NCCc1c[nH]c2ccccc12` [CBK067310], the viability at 28.5 h, 10 µM turned out to be 85.2%.

For the compound `Cc1noc(C)c1S(=O)(=O)NCCc1c[nH]c2ccccc12` [CBK067311], the viability at 28.5 h, 10 µM worked out at 101%.

Turning to `O=C1N=C(NC2CCCCCC2)SC1CC(=O)N1CCOC12CCCCC2` (centres unmarked) [CBK067355], the viability at 28.5 h, 10 µM stood at 94%.

`Cc1cc(NS(=O)(=O)c2ccccc2Br)n(C)n1` [CBK067376]: the viability at 28.5 h, 10 µM turned out to be 102%.

`CCCCN(C(=O)CC1SC(NC2CCCCCC2)=NC1=O)c1ccccc1` (centres unmarked) [CBK067392]: the viability at 28.5 h, 10 µM was determined as 92.4%.

Consider `O=C1N=C(NC2CCCCCC2)SC1CC(=O)N(Cc1ccccc1)c1ccccc1` (centres unmarked) [CBK067394], for which the viability at 28.5 h, 10 µM turned out to be 85.2%.

In the case of `COc1ccc([C@@]23CC[C@@H](NC(=O)Nc4ccc(F)c(F)c4)C[C@@H]2N(C)CC3)c(F)c1OC` [CBK067405], the viability at 28.5 h, 10 µM is 102%.

In the case of `O=C(COc1ccccc1)NCC1(c2ccccc2)CCOCC1` [CBK067407], the viability at 28.5 h, 10 µM is 103%.

With `O=C(NCC1(c2ccccc2)CCOCC1)c1ccno1` [CBK067408], the viability at 28.5 h, 10 µM was found to be 98.2%.

Consider `COc1ccc(C)cc1S(=O)(=O)Nc1cc(OCCN2CCOCC2)c2occc2c1` [CBK067419C], for which the viability at 28.5 h, 10 µM came to 87.7%.

Regarding `O=C1CCC(=O)N1Cc1cccc(-c2ccnc(NS(=O)(=O)c3ccc(Cl)cc3)n2)c1` [CBK067436], the viability at 28.5 h, 10 µM stood at 86.3%.

For `COc1ccc(S(=O)(=O)Nc2nccc(-c3ccc(CN4C(=O)CCC4=O)cc3)n2)cc1` [CBK067438], the viability at 28.5 h, 10 µM came out at 91.5%.

Take `CC(C)CN(C)CC(=O)NC1(c2ccccc2)CCC1` [CBK067455T]: the viability at 28.5 h, 10 µM was 111%.

For `O=C(NCCC1SC(NC2CCCCCC2)=NC1=O)Nc1ccc(F)cc1F` (centres unmarked) [CBK067469], the viability at 28.5 h, 10 µM is 99.7%.

With `Cc1ccc(S(=O)(=O)Nc2ccnc(-c3ccc(CO)cc3)n2)cc1` [CBK067477], the viability at 28.5 h, 10 µM came to 90.4%.

For `O=[N+]([O-])c1cnc(NS(=O)(=O)c2ccc(Oc3ccccc3)cc2)s1` [CBK067535], the viability at 28.5 h, 10 µM worked out at 102%.

`O=[N+]([O-])c1cnc(NS(=O)(=O)c2ccc(-c3cc(C(F)(F)F)on3)s2)s1` [CBK067545]: the viability at 28.5 h, 10 µM was found to be 103%.
